For the assay, the target named is T1, PAF receptor (Oryctolagus cuniculus, UniProt G1TEI7).
T1 construct: platelet membranes where prepared by centrifugation and washing; tissue Pel-Freez (Rogers, AR) (whole rabbit blood); host or cells: rabbit platelet membranes
Nature of the assay: PAF receptor binding assay ([3H]C18-PAF, rabbit platelet membranes). The following applies: read-out: PAF Receptor Binding Activity K1.

SMILES strings stand for the structures. Read-outs that look alike come from different tables or passages of the source.

T1 sequence (G1TEI7 1-342): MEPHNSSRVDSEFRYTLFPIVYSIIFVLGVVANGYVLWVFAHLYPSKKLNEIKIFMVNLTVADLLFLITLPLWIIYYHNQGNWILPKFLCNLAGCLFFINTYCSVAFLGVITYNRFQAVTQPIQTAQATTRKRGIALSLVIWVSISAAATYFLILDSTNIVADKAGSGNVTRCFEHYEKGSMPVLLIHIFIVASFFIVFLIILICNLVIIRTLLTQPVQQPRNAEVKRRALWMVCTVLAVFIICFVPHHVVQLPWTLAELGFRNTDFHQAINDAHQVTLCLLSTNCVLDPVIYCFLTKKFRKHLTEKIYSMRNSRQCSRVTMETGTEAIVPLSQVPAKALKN

With `CNC(=O)Cn1cc(C(=O)c2ccn3c2CSC3c2cccnc2)c2ccc(-c3ccc(F)cc3)cc21` (centres unmarked) [Example 81, 3-(Pyridin-3-yl)-7-[1-(2-N-methylcarbamoylmethyl)-6-(4-fluorophenyl)indol-3-ylcarbonyl]-1H,3H-pyrrolo[1,2-c]thiazole], the Ki turned out to be 0.00112 µM.
Still for that read-out and setting: next, `CC(C)N(C(=O)n1cc(C(=O)c2ccn3c2CSC3c2cccnc2)c2ccc(OCc3ccccc3)cc21)C(C)C` (centres unmarked) [Example 16, 3-(Pyridin-3-yl)-7-(1-N,N-diisopropylcarbamoyl-6-phenylmethoxyindol-3-ylcarbonyl)-1H,3H-pyrrolo[1,2-c]thiazole]: 0.085 µM; `NC(=O)Cn1cc(C(=O)c2ccn3c2CSC3c2cccnc2)c2ccc(-c3ccc(F)cc3)cc21` (centres unmarked) [Example 95, 3-(Pyridin-3-yl)-7-[1-carbamoylmethyl-6-(4-fluorophenyl)indol-3-ylcarbonyl]-1H,3H-pyrrolo[1,2-c]thiazole]: 0.01 µM.
For `COc1ccc(-c2ccc3c(C(=O)c4ccn5c4CSC5c4cccnc4)cn(C(=O)N(C)C)c3c2)cc1` (centres unmarked) [Example 40, 3-(Pyridin-3-yl)-7-[1-N,N-dimethylcarbamoyl-6-(4-methoxyphenyl)indol-3-ylcarbonyl]-1H,3H-pyrrolo[1,2-c]thiazole], the Ki (inhibition of specific binding of 0.6 nM [3H]C18-PAF to rabbit platelet membranes, 60 min, room temperature, Ki calculated from IC50 by Cheng and Prusoff) was 0.026 µM.
As for `O=C(c1ccn2c1CSC2c1cccnc1)c1cn(C(=O)Oc2ccccc2)c2cc(OCc3ccccc3)ccc12` (centres unmarked) [Example 27, 3-[Pyridin-3-yl)-7-(1-carbophenoxy-6-phenylmethoxyindol-3-ylcarbonyl)-1H,3H-pyrrolo[1,2-c]thiazole], the Ki was 0.2 µM.

These data come from US5459152A, “Platelet activating factor antagonists” (Abbott Laboratories, priority 1993, dated 1995).
